What was measured:
weeds [1] = assay: Pre-emergence test (greenhouse), damage to weeds; type: in vivo; conditions: for activity against weeds: soil sprayed 24 hours after sowing, rated after three weeks as % damage vs untreated control
Description: (§1) Solvent: 5 parts by weight of acetone
(§2) Emulsifier: 1 part by weight of alkylaryl polyglycol ether
To produce a suitable preparation of active compound, 1 part by weight of active compound is mixed with the stated amount of solvent, the stated amount of emulsifier is added and the concentrate is diluted with water to the desired concentration.
Seeds of the test plants are sown in normal soil. After 24 hours, the soil is sprayed with the preparation of active compounds such that the particular amount of active compound desired is applied per unit area. The concentration of active compound in the spray liquor is chosen such that the particular amount of active compound desired is applied in 1000 liters of water per hectare.
After three weeks, the degree of damage to the plants is rated in % damage in comparison to the development of the untreated control. The figures denote: • 0%=no effect (like untreated control) • 100%=total destruction

weeds [2] = assay: Post-emergence test (greenhouse), damage to weeds; type: in vivo; conditions: for activity against weeds: test plants of 5-15 cm sprayed, rated after three weeks as % damage vs untreated control
Description: as §1, §2
To product a suitable preparation of active compound, 1 part by weight of active compound is mixed with the stated amount of solvent, the stated amount of emulsifier is added and the concentrate is diluted with water to the desired concentration.
Test plants of a height of 5-15 cm are sprayed with the preparation of active compound such that the particular amounts of active compound desired are applied per unit area. The concentration of the spray liquor is chosen such that the particular amounts of active compound desired are applied in 10001 of water/ha.
After three weeks, the degree of damage to the plants is rated in % damage in comparison to the development of the untreated control.
The figures denote: • 0%=no effect (like untreated control) • 100%=total destruction

[3] = 250 g of a.i./ha, after three weeks
[4] = 8 g of a.i./ha, after three weeks
[5] = 30 g of a.i./ha, after three weeks, Table B8
[6] = 15 g of a.i./ha, after three weeks, Table A3
[7] = 30 g of a.i./ha, after three weeks, Table B10
[8] = 60 g of a.i./ha, after three weeks, Table A7
[9] = 30 g of a.i./ha, after three weeks, Table B9
[10] = 30 g of a.i./ha, after three weeks, Table B11
[11] = 60 g of a.i./ha, after three weeks, Table A6
[12] = 30 g of a.i./ha, after three weeks, Table B12
[13] = 30 g of a.i./ha, after three weeks, Table B13
[14] = 60 g of a.i./ha, after three weeks

COc1nc(C)nc(NC(=O)NS(=O)(=O)c2c(C)cccc2OCCF)n1 [(1)]
% damage Alopecurus (weeds [1]; [3]): 100%
% damage Amaranthus (weeds [1]; [3]): 100%
% damage Avena fatua (weeds [1]; [3]): 100%
% damage Galium (weeds [1]; [3]): 100%
% damage Setaria (weeds [1]; [3]): 100%
% damage Xanthium (weeds [1]; [3]): 100%
% damage Abutilon (weeds [2]; [3]): 100%
% damage Alopecurus (weeds [2]; [3]): 95%
% damage Amaranthus (weeds [2]; [3]): 100%
% damage Avena fatua (weeds [2]; [3]): 95%
% damage Galium (weeds [2]; [3]): 100%
% damage Setaria (weeds [2]; [3]): 100%
% damage Sinapis (weeds [2]; [3]): 100%

COc1nc(C)nc(NC(=O)NS(=O)(=O)c2c(C)cccc2OCCF)n1 [(2)]
% damage Alopecurus (weeds [1]; [3]): 100%
% damage Amaranthus (weeds [1]; [3]): 100%
% damage Avena fatua (weeds [1]; [3]): 95%
% damage Galium (weeds [1]; [3]): 100%
% damage Setaria (weeds [1]; [3]): 100%
% damage Xanthium (weeds [1]; [3]): 95%
% damage Abutilon (weeds [2]; [3]): 100%
% damage Alopecurus (weeds [2]; [3]): 100%
% damage Amaranthus (weeds [2]; [3]): 100%
% damage Avena fatua (weeds [2]; [3]): 100%
% damage Galium (weeds [2]; [3]): 100%
% damage Setaria (weeds [2]; [3]): 100%
% damage Sinapis (weeds [2]; [3]): 100%

COc1nc(C)nc(NC(=O)NS(=O)(=O)c2c(OCCF)cccc2C(F)(F)F)n1 [(3)]
% damage Abutilon (weeds [1]; [4]): 100%
% damage Cyperus (weeds [1]; [4]): 100%
% damage Echinochloa (weeds [1]; [4]): 100%
% damage Galium (weeds [1]; [4]): 100%
% damage Solanum (weeds [1]; [4]): 100%
% damage Stellaria (weeds [1]; [4]): 100%
% damage Veronica (weeds [1]; [4]): 100%
% damage Abutilon (weeds [2]; [5]): 100%
% damage Alopecurus (weeds [2]; [5]): 95%
% damage Amaranthus (weeds [2]; [5]): 100%
% damage Lolium (weeds [2]; [5]): 95%
% damage Matricaria (weeds [2]; [5]): 100%
% damage Viola (weeds [2]; [5]): 100%
% damage Xanthium (weeds [2]; [5]): 100%

COc1nc(C)nc(NC(=O)[N-]S(=O)(=O)c2c(OCCF)cccc2C(F)(F)F)n1.[Na+] [(5)]
% damage Amaranthus (weeds [1]; [6]): 100%
% damage Datura (weeds [1]; [6]): 100%
% damage Echinochloa (weeds [1]; [6]): 100%
% damage Galium (weeds [1]; [6]): 100%
% damage Matricaria (weeds [1]; [6]): 100%
% damage Viola (weeds [1]; [6]): 100%
% damage Abutilon (weeds [2]; [7]): 100%
% damage Alopecurus (weeds [2]; [7]): 95%
% damage Amaranthus (weeds [2]; [7]): 100%
% damage Ipomoea (weeds [2]; [7]): 100%
% damage Lolium (weeds [2]; [7]): 95%
% damage Matricaria (weeds [2]; [7]): 100%
% damage Stellaria (weeds [2]; [7]): 100%

CCc1cccc(OCCCF)c1S(=O)(=O)NC(=O)Nc1nc(C)cc(C)n1 [(6)]
% damage Abutilon (weeds [1]; [8]): 90%
% damage Alopecurus (weeds [1]; [8]): 80%
% damage Amaranthus (weeds [1]; [8]): 90%
% damage Galium (weeds [1]; [8]): 90%
% damage Setaria (weeds [1]; [8]): 95%
% damage Sinapis (weeds [1]; [8]): 90%
% damage Abutilon (weeds [2]; [9]): 90%
% damage Alopecurus (weeds [2]; [9]): 90%
% damage Amaranthus (weeds [2]; [9]): 90%
% damage Ipomoea (weeds [2]; [9]): 100%
% damage Xanthium (weeds [2]; [9]): 95%

COc1cc(OC)nc(NC(=O)NS(=O)(=O)c2c(C)cccc2OCCCF)n1 [(12)]
% damage Abutilon (weeds [2]; [10]): 95%
% damage Amaranthus (weeds [2]; [10]): 95%
% damage Datura (weeds [2]; [10]): 95%
% damage Echinochloa (weeds [2]; [10]): 90%

COc1nc(C)nc(NC(=O)NS(=O)(=O)c2c(C)cccc2OCCCF)n1 [(13)]
% damage Abutilon (weeds [2]; [7]): 100%
% damage Alopecurus (weeds [2]; [7]): 90%
% damage Amaranthus (weeds [2]; [7]): 100%
% damage Ipomoea (weeds [2]; [7]): 90%
% damage Lolium (weeds [2]; [7]): 90%
% damage Matricaria (weeds [2]; [7]): 100%
% damage Stellaria (weeds [2]; [7]): 100%

COc1nc(NC(=O)NS(=O)(=O)c2c(C)cccc2OCCCF)nc(OC)n1 [(15)]
% damage Abutilon (weeds [1]; [11]): 95%
% damage Alopecurus (weeds [1]; [11]): 95%
% damage Amaranthus (weeds [1]; [11]): 100%
% damage Echinochloa (weeds [1]; [11]): 95%
% damage Galium (weeds [1]; [11]): 95%
% damage Sinapis (weeds [1]; [11]): 95%
% damage Abutilon (weeds [2]; [7]): 95%
% damage Alopecurus (weeds [2]; [7]): 90%
% damage Amaranthus (weeds [2]; [7]): 100%
% damage Ipomoea (weeds [2]; [7]): 100%
% damage Lolium (weeds [2]; [7]): 90%
% damage Matricaria (weeds [2]; [7]): 100%
% damage Stellaria (weeds [2]; [7]): 100%

COc1cc(Cl)nc(NC(=O)NS(=O)(=O)c2c(OCCF)cccc2C(F)(F)F)n1 [(20)]
% damage Abutilon (weeds [1]; [8]): 90%
% damage Alopecurus (weeds [1]; [8]): 90%
% damage Amaranthus (weeds [1]; [8]): 95%
% damage Galium (weeds [1]; [8]): 95%
% damage Setaria (weeds [1]; [8]): 100%
% damage Sinapis (weeds [1]; [8]): 95%
% damage Echinochloa (weeds [2]; [12]): 90%
% damage Ipomoea (weeds [2]; [12]): 100%
% damage Matricaria (weeds [2]; [12]): 95%
% damage Polygonum (weeds [2]; [12]): 95%
% damage Xanthium (weeds [2]; [12]): 100%

COc1nc(NC(=O)NS(=O)(=O)c2c(OCCF)cccc2C(F)(F)F)nc(OC)n1 [(21)]
% damage Abutilon (weeds [1]; [8]): 90%
% damage Alopecurus (weeds [1]; [8]): 90%
% damage Amaranthus (weeds [1]; [8]): 95%
% damage Galium (weeds [1]; [8]): 95%
% damage Setaria (weeds [1]; [8]): 100%
% damage Sinapis (weeds [1]; [8]): 100%
% damage Avena fatua (weeds [2]; [13]): 100%
% damage Datura (weeds [2]; [13]): 100%
% damage Lolium (weeds [2]; [13]): 100%
% damage Matricaria (weeds [2]; [13]): 100%
% damage Solanum (weeds [2]; [13]): 100%

CN(C)c1nc(NC(=O)NS(=O)(=O)c2c(OCCF)cccc2C(F)(F)F)nc(OCC(F)(F)F)n1 [(22)]
% damage Alopecurus (weeds [2]; [14]): 90%
% damage Amaranthus (weeds [2]; [14]): 100%
% damage Galium (weeds [2]; [14]): 95%
% damage Ipomoea (weeds [2]; [14]): 100%
% damage Setaria (weeds [2]; [14]): 95%
% damage Sinapis (weeds [2]; [14]): 95%

COc1cc(OC)nc(NC(=O)NS(=O)(=O)c2c(C)cccc2OCCF)n1 [(24)]
% damage Alopecurus (weeds [1]; [3]): 100%
% damage Amaranthus (weeds [1]; [3]): 100%
% damage Avena fatua (weeds [1]; [3]): 95%
% damage Galium (weeds [1]; [3]): 100%
% damage Setaria (weeds [1]; [3]): 95%
% damage Xanthium (weeds [1]; [3]): 95%
% damage Abutilon (weeds [2]; [3]): 100%
% damage Alopecurus (weeds [2]; [3]): 100%
% damage Amaranthus (weeds [2]; [3]): 100%
% damage Avena fatua (weeds [2]; [3]): 90%
% damage Galium (weeds [2]; [3]): 90%
% damage Setaria (weeds [2]; [3]): 95%
% damage Sinapis (weeds [2]; [3]): 100%

CCCc1cccc(OCCF)c1S(=O)(=O)NC(=O)Nc1nc(OC)cc(OC)n1 [(26)]
% damage Alopecurus (weeds [1]; [3]): 100%
% damage Amaranthus (weeds [1]; [3]): 100%
% damage Avena fatua (weeds [1]; [3]): 90%
% damage Galium (weeds [1]; [3]): 95%
% damage Setaria (weeds [1]; [3]): 100%
% damage Xanthium (weeds [1]; [3]): 95%
% damage Abutilon (weeds [2]; [3]): 100%
% damage Alopecurus (weeds [2]; [3]): 95%
% damage Amaranthus (weeds [2]; [3]): 100%
% damage Avena fatua (weeds [2]; [3]): 90%
% damage Galium (weeds [2]; [3]): 90%
% damage Setaria (weeds [2]; [3]): 90%
% damage Sinapis (weeds [2]; [3]): 95%

COc1nc(C)nc(NC(=O)NS(=O)(=O)c2c(OCCF)cccc2C(F)(F)F)n1 [Example 3]
activity against weeds (weeds [1]): very strong activity
activity against weeds (weeds [2]): very strong activity

COc1cc(OC)nc(NC(=O)NS(=O)(=O)c2c(OCCF)cccc2C(F)(F)F)n1 [Example 4]
activity against weeds (weeds [1]): very strong activity
activity against weeds (weeds [2]): very strong activity

COc1nc(C)nc(NC(=O)[N-]S(=O)(=O)c2c(OCCF)cccc2C(F)(F)F)n1.[Na+] [Example 5]
activity against weeds (weeds [1]): very strong activity
activity against weeds (weeds [2]): very strong activity

CCc1cccc(OCCCF)c1S(=O)(=O)NC(=O)Nc1nc(C)cc(C)n1 [Example 6]
activity against weeds (weeds [1]): very strong activity
activity against weeds (weeds [2]): very strong activity

CCCc1cccc(OCCCF)c1S(=O)(=O)NC(=O)Nc1nc(C)nc(OC)n1 [Example 7]
activity against weeds (weeds [1]): very strong activity
activity against weeds (weeds [2]): very strong activity

COc1cc(OC)nc(NC(=O)NS(=O)(=O)c2c(C)cccc2OCCCF)n1 [Example 12]
activity against weeds (weeds [2]): very strong activity

COc1nc(C)nc(NC(=O)NS(=O)(=O)c2c(C)cccc2OCCCF)n1 [Example 13]
activity against weeds (weeds [2]): very strong activity

CCc1cccc(OCCCF)c1S(=O)(=O)NC(=O)Nc1nc(Cl)cc(OC)n1 [Example 18]
activity against weeds (weeds [2]): very strong activity

CN(C)c1nc(NC(=O)NS(=O)(=O)c2c(OCCF)cccc2C(F)(F)F)nc(OCC(F)(F)F)n1 [Example 22]
activity against weeds (weeds [2]): very strong activity

Reference: patent US20100285963A1, “SUBSTITUTED FLUOROALKOXYPHENYLSULFONYLUREAS” (priority 2001, published 2010)
